Results taken from patent US12441720B2, “Modulators of the integrated stress response pathway” (EVOTEC INTERNATIONAL GMBH, priority 2020, dated 2025).
pIC50: −log10 of the molar value.

Experiments:
ATF4 = assay: HEK-ATF4 High Content Imaging assay (prevention of Tunicamycin induced ISR); format: cell-based; settings: Homo sapiens, wild-type HEK293 cells, 6 hrs incubation, ATF4 signal ratio nucleus/cytoplasm, read-out: Activity (IC50, HEK-ATF4 readout)
Method: Example compounds were tested in the HEK-ATF4 High Content Imaging assay to assess their pharmacological potency to prevent Tunicamycin induced ISR. Wild-type HEK293 cells were plated in 384-well imaging assay plates at a density of 12,000 cells per well in growth medium (containing DMEM/F12, 10% FBS, 2 mM L-Glutamine, 100 U/mL Penicillin—100 μg/mL Streptomycin) and incubated at 37° C., 5% CO2. 24-hrs later, the medium was changed to 50 μl assay medium per well (DMEM/F12, 0.3% FBS, 2 mM L-Glutamine, 100 U/mL Penicillin—100 μg/mL Streptomycin). Example compounds were serially diluted in dimethyl sulfoxide (DMSO), spotted into intermediate plates and prediluted with assay medium containing 3.3 μM Tunicamycin to give an 11-fold excess of final assay concentration. In addition to the example compound testing area, the plates also contained multiples of control wells for assay normalization purposes, wells containing Tunicamycin but no example compounds (High control), as well as wells containing neither example compound nor Tunicamycin (Low control). The assay was started by transferring 5 μl from the intermediate plate into the assay plates, followed by incubation for 6 hrs at 37° C., 5% CO2. Subsequently, cells were fixed (4% PFA in PBS, 20 min at room temperature) and submitted to indirect ATF4 immunofluorescence staining (primary antibody rabbit anti ATF4, clone D4B8, Cell Signaling Technologies; secondary antibody Alexa Fluor 488 goat anti-rabbit IgG (H+L), Thermofisher Scientific). Nuclei were stained using Hoechst dye (Thermofisher Scientific), and plates were imaged on an Opera Phenix High Content imaging platform equipped with 405 nm and 488 nm excitation. Finally, images were analyzed using script based algorithms. The main readout HEK-ATF4 monitored the ATF4 signal ratio between nucleus and cytoplasm. Tunicamycin induced an increase in the overall ATF4 ratio signal, which was prevented by ISR modulating example compounds. In addition, HEK-CellCount readout was derived from counting the number of stained nuclei corresponding to healthy cells. This readout served as an internal toxicity control.

[1] = biological target: T1, human ERG potassium channel (hERG) (Homo sapiens, UniProt Q12809); assay: hERG tail current recording, Rapid ICE automated patch-clamp (QPatch HTX); format: cell-based; settings: recombinant HEK293 cell line stably transfected with hERG cDNA; test concentrations 0.3, 3 and 30 μM; read-out: hERG Activity (IC50, tail current inhibition)
T1 construct: expressed in transfected cells; host or cells: HEK293, stably transfected, tetracycline-inducible
T1 sequence (Q12809 whole entry): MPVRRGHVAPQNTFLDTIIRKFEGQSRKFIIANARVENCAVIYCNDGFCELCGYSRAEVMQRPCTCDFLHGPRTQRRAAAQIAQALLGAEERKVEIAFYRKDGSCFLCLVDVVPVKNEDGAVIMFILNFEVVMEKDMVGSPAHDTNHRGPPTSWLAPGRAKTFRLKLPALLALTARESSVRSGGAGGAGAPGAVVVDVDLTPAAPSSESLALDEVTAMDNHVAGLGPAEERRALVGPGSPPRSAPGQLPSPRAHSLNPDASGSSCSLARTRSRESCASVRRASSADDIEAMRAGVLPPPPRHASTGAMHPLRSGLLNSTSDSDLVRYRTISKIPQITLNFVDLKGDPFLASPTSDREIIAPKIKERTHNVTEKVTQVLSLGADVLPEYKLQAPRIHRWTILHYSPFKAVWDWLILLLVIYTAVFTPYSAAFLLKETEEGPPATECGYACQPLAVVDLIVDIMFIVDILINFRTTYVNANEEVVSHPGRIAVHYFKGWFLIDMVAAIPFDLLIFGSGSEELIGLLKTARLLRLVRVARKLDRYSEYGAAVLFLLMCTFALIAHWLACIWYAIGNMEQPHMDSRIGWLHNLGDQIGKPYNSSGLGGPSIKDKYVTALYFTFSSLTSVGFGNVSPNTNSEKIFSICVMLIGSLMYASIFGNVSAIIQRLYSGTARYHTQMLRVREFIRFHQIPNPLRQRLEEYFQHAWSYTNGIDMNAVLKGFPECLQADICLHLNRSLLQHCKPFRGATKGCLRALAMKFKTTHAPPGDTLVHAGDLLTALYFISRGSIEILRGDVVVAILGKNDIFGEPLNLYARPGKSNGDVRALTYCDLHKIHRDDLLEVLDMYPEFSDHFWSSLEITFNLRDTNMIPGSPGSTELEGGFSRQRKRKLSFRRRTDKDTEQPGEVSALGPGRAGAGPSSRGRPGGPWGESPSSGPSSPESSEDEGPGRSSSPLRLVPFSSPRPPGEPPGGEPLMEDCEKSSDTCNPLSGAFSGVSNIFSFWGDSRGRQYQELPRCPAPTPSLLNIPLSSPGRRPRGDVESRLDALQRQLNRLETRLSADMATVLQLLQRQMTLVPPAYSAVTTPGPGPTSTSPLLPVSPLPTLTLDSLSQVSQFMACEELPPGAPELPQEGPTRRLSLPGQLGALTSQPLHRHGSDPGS
Method: The potency of the example compounds in inhibiting human ERG potassium channel (hERG) tail current was assessed in a recombinant HEK293 cell line stably transfected with hERG cDNA under an inducible promoter, using Rapid ICE (rapid ion channel electrophysiology) assay. Rapid ICE is an automated patch-clamp assay utilizing the QPatch HTX system (Sophion Bioscience A/S). Briefly, inducible HEK hERG cells were cultivated in minimum essential medium supplemented with 10% FBS, 1% non-essential amino acids, 1% sodium pyruvate, 2 mM 1-glutamine, 15 μg/mL blasticidin, and 100 μg/mL hygromycin. hERG channel expression induction was obtained by adding 10 μg/mL tetracycline for 24, 48, or 72 h before recordings.
On the day of the experiment, cells were detached with TrypLE and prepared to be loaded on the instrument. Cells were resuspended in 7 mL of Serum-Free Media containing 25 mM Hepes and soybean trypsin inhibitor and immediately placed in the cell storage tank of the machine. The composition of the extracellular buffer was (mM): NaCl 137, KCl 4, CaCl2 1.8, MgCl2 1.0, d-glucose 10, N-2-hydroxyethylpiperazine-N′-2-ethanesulfonic acid (HEPES) 10, pH 7.4 with 1 M NaOH. The composition of the intracellular solution was (mM): KCl 130, MgCl2 1.0, ethylene glycol-bis(β-aminoethyl ether)-N,N,N′,N′-tetraacetic acid (EGTA) 5, MgATP 5, HEPES 10, pH 7.2 with 1 M KOH. The voltage protocol included the following steps: step from −80 to −50 mV for 200 ms, +20 mV for 4.8 s, step to −50 mV for 5 s, then step to the holding potential of […]. Example compounds were dissolved in DMSO and diluted in extracellular buffer to achieve final test concentrations (0.3, 3, and 30 μM) in 0.3% DMSO. The voltage protocol was run and recorded continuously during the experiment. The vehicle, corresponding to 0.3% DMSO in extracellular buffer was then applied for 3 min, followed by the example compound in triplicate. The standard combined exposure time was 5 min. The average of tail current amplitude values recorded from four sequential voltage pulses was used to calculate for each cell the effect of the example compound by calculating the residual current (% control) compared with vehicle pretreatment. Data were reported as % inhibition for each concentration tested, and IC50 values were estimated using QPatch software. At least two cells were tested, and even more if results diverged.

| SMILES | pIC50 (ATF4) | pIC50 [1] |
| --- | --- | --- |
| O=C(COc1ccc(Cl)c(F)c1)N[C@H]1CO[C@H](c2nnc(-c3ccc(Cl)cc3)o2)OC1 [Example 1, 2-(4-chloro-3-fluorophenoxy)-N-[trans-2-[5-(4-chlorophenyl)-1,3,4-oxadiazol-2-yl]-1,3-dioxan-5-yl]acetamide] | 6.30 to 9.00 |  |
| O=C(COc1ccc(Cl)c(F)c1)N[C@H]1CO[C@H](c2nnc([C@H]3C[C@@H](OC(F)(F)F)C3)o2)OC1 [Example 2, 2-(4-chloro-3-fluorophenoxy)-N-[trans-2-{5-[cis-3-(trifluoromethoxy)cyclobutyl]-1,3,4-oxadiazol-2-yl}-1,3-dioxan-5-yl]acetamide] | 6.30 to 9.00 | < 5.30 |
| O=C(COc1ccc(Cl)c(F)c1)N[C@H]1CO[C@@H](c2cn(-c3ccc(Cl)cc3)nn2)OC1 [Example 3, 2-(4-chloro-3-fluorophenoxy)-N-[cis-2-[1-(4-chlorophenyl)-1H-1,2,3-triazol-4-yl]-1,3-dioxan-5-yl]acetamide] | 4.82 to 5.70 |  |
| O=C(COc1ccc(Cl)c(F)c1)N[C@H]1CO[C@H](c2cn(-c3ccc(Cl)cc3)nn2)OC1 [Example 4, 2-(4-chloro-3-fluorophenoxy)-N-[trans-2-[1-(4-chlorophenyl)-1H-1,2,3-triazol-4-yl]-1,3-dioxan-5-yl]acetamide] | 5.70 to 6.30 |  |
| O=C(COc1ccc(Cl)c(F)c1)N[C@H]1CO[C@H](c2nnc(OCCCC(F)(F)F)o2)OC1 [Example 5, 2-(4-chloro-3-fluorophenoxy)-N-[trans-2-[5-(4,4,4-trifluorobutoxy)-1,3,4-oxadiazol-2-yl]-1,3-dioxan-5-yl]acetamide] | 6.30 to 9.00 | 5.30 to 6.00 |
| O=C(COc1ccc(Cl)c(F)c1)N[C@H]1CO[C@H](c2nnc(OCCOC(F)(F)F)o2)OC1 [Example 6, 2-(4-chloro-3-fluorophenoxy)-N-[trans-2-{5-[2-(trifluoromethoxy)ethoxy]-1,3,4-oxadiazol-2-yl}-1,3-dioxan-5-yl]acetamide] | 6.30 to 9.00 | < 5.30 |
| O=C(COc1ccc(Cl)c(F)c1)N[C@H]1CO[C@H](c2nnc(N3CC(OC(F)(F)F)C3)o2)OC1 [Example 7, 2-(4-chloro-3-fluorophenoxy)-N-[trans-2-{5-[3-(trifluoromethoxy)azetidin-1-yl]-1,3,4-oxadiazol-2-yl}-1,3-dioxan-5-yl]acetamide] | 6.30 to 9.00 | < 5.30 |
| O=C(COc1ccc(C(F)F)c(Cl)c1)N[C@H]1CO[C@H](c2nnc(N3CC(OC(F)(F)F)C3)o2)OC1 [Example 8, 2-[3-chloro-4-(difluoromethyl)phenoxy]-N-[trans-2-{5-[3-(trifluoromethoxy)azetidin-1-yl]-1,3,4-oxadiazol-2-yl}-1,3-dioxan-5-yl]acetamide] | 6.30 to 9.00 | < 5.30 |
| O=C(COc1ccc(Cl)c(Cl)c1)N[C@H]1CO[C@H](c2nnc(OCCOC(F)(F)F)o2)OC1 [Example 9, 2-(3,4-dichlorophenoxy)-N-[trans-2-{5-[2-(trifluoromethoxy)ethoxy]-1,3,4-oxadiazol-2-yl}-1,3-dioxan-5-yl]acetamide] | 6.30 to 9.00 | < 5.30 |
| O=C(COc1cnc(Cl)c(F)c1)N[C@H]1CO[C@H](c2nnc([C@H]3C[C@@H](OC(F)(F)F)C3)o2)OC1 [Example 10, 2-[(6-chloro-5-fluoro-3-pyridyl)oxy]-N-[trans-2-[5-[cis-3-(trifluoromethoxy)cyclobutyl]-1,3,4-oxadiazol-2-yl]-1,3-dioxan-5-yl]acetamide] | 4.82 to 5.70 | < 5.30 |
